Tests used:
Assay in all cases: relative viability (nuclei count vs DMSO), 5 days (fraction); higher = more cells survive
VX-11e + Foretinib = compound: CC1=CN=C(N=C1C2=CNC(=C2)C(=O)N[C@H](CO)C3=CC(=CC=C3)Cl)NC4=C(C=C(C=C4)F)Cl [VX-11e] + COc1cc2c(Oc3ccc(NC(=O)C4(C(=O)Nc5ccc(F)cc5)CC4)cc3F)ccnc2cc1OCCCN1CCOCC1 [Foretinib] (partner 0.25 µM)
Summary of the method: (§1)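 Lung cancer cell lines were pin-tool dosed in 1536-well plates on the day after seeding, with either a lone drug or a fixed anchor-drug dose plus five library-drug doses (not always all listed) in √10 steps. Nuclei were counted on 4× images after 5 days. Relative viability is the ratio of treated-well to vehicle-well nuclei counts, with each value a median of duplicate plates.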

VX-11e + Vorinostat = compound: CC1=CN=C(N=C1C2=CNC(=C2)C(=O)N[C@H](CO)C3=CC(=CC=C3)Cl)NC4=C(C=C(C=C4)F)Cl [VX-11e] + O=C(CCCCCCC(=O)Nc1ccccc1)NO [Vorinostat] (partner 1 µM)
Summary of the method: as §1

VX-11e + AZD7762 = compound: CC1=CN=C(N=C1C2=CNC(=C2)C(=O)N[C@H](CO)C3=CC(=CC=C3)Cl)NC4=C(C=C(C=C4)F)Cl [VX-11e] + NC(=O)Nc1cc(-c2cccc(F)c2)sc1C(=O)N[C@H]1CCCNC1 [AZD7762] (partner 0.2 µM)
Summary of the method: as §1

VX-11e + Pictilisib = compound: CC1=CN=C(N=C1C2=CNC(=C2)C(=O)N[C@H](CO)C3=CC(=CC=C3)Cl)NC4=C(C=C(C=C4)F)Cl [VX-11e] + CS(=O)(=O)N1CCN(Cc2cc3nc(-c4cccc5[nH]ncc45)nc(N4CCOCC4)c3s2)CC1 [Pictilisib] (partner 1 µM)
Summary of the method: as §1

Cell Line	relative viability (VX-11e + Foretinib; first compound 0.04 µM)	relative viability (VX-11e + Foretinib; first compound 0.1265 µM)	relative viability (VX-11e + Foretinib; first compound 0.4 µM)	relative viability (VX-11e + Foretinib; first compound 1.265 µM)	relative viability (VX-11e + Foretinib; first compound 4 µM)	relative viability (VX-11e + Vorinostat; first compound 0.04 µM)	relative viability (VX-11e + Vorinostat; first compound 0.1265 µM)	relative viability (VX-11e + Vorinostat; first compound 0.4 µM)	relative viability (VX-11e + Vorinostat; first compound 1.265 µM)	relative viability (VX-11e + Vorinostat; first compound 4 µM)	relative viability (VX-11e + AZD7762; first compound 0.04 µM)	relative viability (VX-11e + AZD7762; first compound 0.1265 µM)	relative viability (VX-11e + AZD7762; first compound 0.4 µM)	relative viability (VX-11e + AZD7762; first compound 1.265 µM)	relative viability (VX-11e + AZD7762; first compound 4 µM)	relative viability (VX-11e + Pictilisib; first compound 0.04 µM)	relative viability (VX-11e + Pictilisib; first compound 0.1265 µM)	relative viability (VX-11e + Pictilisib; first compound 1.265 µM)	relative viability (VX-11e + Pictilisib; first compound 4 µM)	relative viability (VX-11e + Pictilisib; first compound 0.4 µM)
NCI-H2405	1.04	1.01	1.05	1.08	0.455	0.993	0.866	1.22	0.918	0.565	0.835	0.729	0.625	0.671	0.412	0.3	0.388	0.412	0.125	–
NCI-H23	0.896	0.984	–	0.767	0.472	0.562	0.581	0.174	0.148	0.182	0.208	0.231	0.167	0.176	0.119	0.35	0.437	0.31	0.19	0.176
LXF-289	1	0.877	0.88	0.85	0.637	0.851	0.726	–	0.668	0.543	1.15	1.12	–	0.805	0.686	0.785	0.754	0.686	0.333	0.66
NCI-H1437	1.27	1.25	1.32	1.36	0.677	0.82	0.864	0.82	0.739	0.458	1.11	1.09	0.867	0.972	0.741	0.36	0.281	0.163	0.124	0.356
NCI-H661	1.03	1.04	1.05	1.07	0.66	0.784	0.798	0.718	0.794	0.747	–	–	–	–	–	0.324	0.462	0.403	0.363	0.4
PC-3 [JPC-3]	1.06	0.972	1.05	1.08	0.769	0.752	0.708	1.01	0.646	0.755	0.697	0.653	0.685	0.701	0.711	0.608	0.684	0.644	0.635	0.703
PC-14	1.08	1.05	0.981	1.07	0.708	0.747	0.692	0.355	0.58	0.302	0.341	0.339	0.274	0.278	0.256	0.661	0.619	0.494	0.207	0.583
SK-LU-1	0.882	0.779	–	0.574	0.224	0.827	0.771	0.766	0.545	0.298	–	–	–	–	–	0.442	0.551	0.37	0.195	0.249
SW 1573	0.947	0.902	0.78	0.86	0.708	–	0.956	0.408	0.432	0.466	–	–	–	–	–	0.509	0.522	0.307	0.298	0.404
Calu-6	0.969	0.869	0.829	0.397	0.103	–	–	–	–	–	–	–	–	–	–	1.03	0.874	0.261	0.0991	0.907
NCI-H1299	1.2	1.08	1.11	1.23	0.52	–	–	–	–	–	–	–	–	–	–	0.851	0.821	0.262	0.119	0.681
NCI-H520	0.746	0.715	0.69	0.919	0.569	0.646	0.875	0.682	0.698	0.518	–	–	–	–	–	0.267	0.276	0.274	0.336	0.34
HCC-44	–	–	–	–	–	1.15	1.15	1.12	1.03	0.831	1.03	0.904	1.01	1.07	1.13	0.539	0.552	0.359	0.163	0.628
NCI-H2009	1.33	1.18	1.06	0.857	0.509	0.794	0.604	0.638	0.791	0.233	–	–	–	–	–	0.712	0.671	0.23	0.186	0.478
NCI-H1703	0.383	0.33	–	0.317	0.28	–	–	–	–	–	–	–	0.141	0.121	0.122	–	0.257	0.268	0.258	0.234
COR-L23	1.1	0.939	0.964	0.749	0.373	0.31	0.436	0.592	0.41	0.262	–	–	–	–	–	0.83	0.72	0.382	0.184	0.52
SK-MES-1	1.03	0.881	0.857	1.02	0.419	1.12	1.04	0.902	0.422	0.393	–	–	–	–	–	0.337	0.31	0.249	0.168	0.316
UMC-11	1.05	0.946	0.986	0.976	0.905	0.374	0.337	0.447	0.297	0.315	–	–	–	–	–	0.355	0.943	0.401	0.609	0.755
NCI-H2023	0.811	0.771	–	0.513	0.42	0.709	0.604	0.289	0.318	0.209	–	–	–	–	–	0.2	0.215	0.151	0.119	0.0991
NCI-H1650	1.14	0.972	–	1.02	0.711	0.561	0.549	0.409	0.529	0.458	–	–	–	–	–	0.531	0.451	0.276	0.303	0.171
IA-LM	1.09	1.17	1.22	0.486	0.0917	1.07	0.814	0.941	0.668	0.302	–	–	–	–	–	0.327	0.263	0.0879	0.0695	0.199
